Measured values published in PMC9139979, “Features of ZED1227: The First-In-Class Tissue Transglutaminase Inhibitor Undergoing Clinical Evaluation for the Treatment of Celiac Disease” (Cells, 2022).
Values joined by “and” are separate entries in the source; they are usually repeats but may differ in a detail not shown here. Identical values can stand only once. “Also recorded” adds a separate entry of the source. Like-named read-outs stand apart in the source and are kept apart here.

Legend:
hFXIII-A2 = biological target: T1, hFXIII-A2 (Homo sapiens, UniProt P00488); assay: Fluorescent transamidation assay (DCC-assay), hFXIII-A2; type: biochemical
T1 construct: purchased Zedira T027
T1 sequence (P00488 39-732 limits assumed): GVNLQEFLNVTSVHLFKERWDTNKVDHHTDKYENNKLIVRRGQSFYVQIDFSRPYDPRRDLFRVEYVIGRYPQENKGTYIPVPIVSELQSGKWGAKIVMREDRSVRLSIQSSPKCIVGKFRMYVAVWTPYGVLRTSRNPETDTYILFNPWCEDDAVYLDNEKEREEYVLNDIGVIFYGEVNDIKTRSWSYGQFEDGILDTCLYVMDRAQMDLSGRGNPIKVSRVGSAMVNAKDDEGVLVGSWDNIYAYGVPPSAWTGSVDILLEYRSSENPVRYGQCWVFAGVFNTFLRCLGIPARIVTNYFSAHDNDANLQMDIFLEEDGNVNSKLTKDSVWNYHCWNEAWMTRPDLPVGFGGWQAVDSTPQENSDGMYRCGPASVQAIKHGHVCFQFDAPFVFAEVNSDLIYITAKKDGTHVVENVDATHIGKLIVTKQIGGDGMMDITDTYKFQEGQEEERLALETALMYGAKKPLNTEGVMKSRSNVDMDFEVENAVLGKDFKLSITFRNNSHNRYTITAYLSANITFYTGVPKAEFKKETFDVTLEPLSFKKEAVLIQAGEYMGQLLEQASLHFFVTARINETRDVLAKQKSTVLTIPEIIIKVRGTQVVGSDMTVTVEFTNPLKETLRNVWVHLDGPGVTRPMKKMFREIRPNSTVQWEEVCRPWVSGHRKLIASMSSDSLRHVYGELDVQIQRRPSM

[1] = Caco-2 cell permeability assay (CacoReady); type: in vitro ADME; conditions: human, apical 200 μM, HBSS pH 6.5, 1% DMSO
Protocol: The permeability coefficient (Papp value) was obtained from Caco-2 monolayer studies predicting oral/intestinal bioavailability of the tested compound. The assay was performed using CacoReady^TM ready-to-use kits from ReadyCell according to the manufacturer’s protocol. […] The concentration of ZED1227 in the basal and apical media was determined by HPLC. The initial concentration of ZED1227 in the apical medium was 200 μM. Propranolol (20 μM final concentration) was used as a control to validate each ready-to-use plate. Compound stock solutions were prepared in DMSO and further diluted to 1% DMSO using HBSS pH 6.5 to yield the desired working concentration.

[2] = Solubility in PBS (pH 7.4) and diluted HCl (pH 1.1) by HPLC; type: physicochemical
Caco-2 cells = assay: EZ4U viability assay, Caco-2; type: cell-based; conditions: up to 1,000 μM, 48 h
Protocol: Cytotoxicological analysis of ZED1227 was performed using Huh7 (human liver carcinoma, CLS Cell Lines Service GmbH, Eppelheim, Germany) and Caco-2 cells (human epithelial colorectal adenocarcinoma, Sigma Aldrich, Taufkirchen, Germany) with respect to the effect on proliferation and viability, according to the assay protocols provided by the manufacturers of the respective kits. The Cell Proliferation ELISA (BrdU, colorimetric) was purchased from Roche (Mannheim, Germany), whereas the Cell Proliferation and Cytotoxicity Assay EZ4U was purchased from Biomedica (Vienna, Austria). […]
The EZ4U assay (determination of viability) was performed by incubating the cells with ZED1227 working solution (1% DMSO in culture medium) up to a concentration of 1,000 μM for 48 h, followed by addition of a yellow tetrazolium reagent (not further specified) into the culture medium. The non-toxic tetrazolium salts were reduced to red-colored formazan which was quantified spectrophotometrically. […]

[3] = test system: healthy female and male volunteers; assay: Phase 1 clinical trial in healthy individuals; type: in vivo, human
Protocol: The phase 1 clinical trial involved more than 100 healthy individuals exposed to up to 500 mg of ZED1227. […] Accordingly, the new chemical entity was progressed to a phase 2a clinical study. The efficacy and safety of a 6-week treatment with ZED1227 was assessed in a randomized, double-blind, placebo-controlled, dose-finding trial at three dose levels (10, 50, 100 mg). In this trial, adult patients with well-controlled celiac disease were challenged with 3 g daily gluten intake to assess the protective effect of ZED1227 on the mucosa. […] Based on the promising results a phase 2b study was initiated in celiac disease patients suffering from symptoms despite following a “gluten-free diet”—essentially an adjunct treatment. There will be no gluten challenge in this “real-life” study, which aims to further substantiate the protective effect of ZED1227 and impact on quality of life in celiac disease patients. It remains to be seen whether the promising clinical data obtained so far translate into a viable, commercially successful drug for patient benefit.

[4] = test system: adult patients with well-controlled celiac disease; set-up: method as in PMID 34192430; conditions: cited from earlier work
[5] = Reactivity towards thiols (excess glutathione); type: physicochemical; conditions: 160-fold excess GSH, 25 °C, after 48 h
Protocol: To exclude undesired reactions of ZED1227 with biological thiols, an investigation was performed with the tripeptide glutathione (GSH) as a surrogate. ZED1227 (60 μM) was incubated with a 160-fold excess of glutathione (10,000 μM) in aqueous media [containing 7% (v/v) tetrahydrofuran and 13% (v/v) methanol] at ambient temperature (25 °C). The parent compound and the GSH-adduct formed after 48 h were determined by HPLC (vide supra).

CCC(CC)CNC(=O)Cn1cccc(NC(=O)[C@H](CC/C=C/C(=O)OC)NC(=O)c2cncn2C)c1=O [ZED1227, (S,E)-Methyl 7-(1-(2-(2-ethylbutylamino)-2-oxoethyl)-2-oxo-1,2-dihydropyridin-3-ylamino)-6-(1-methyl-1H-imidazole-5-carboxamido)-7-oxohept-2-enoate]
Selectivity hFXIII-A2 versus hTG2 (hFXIII-A2; ratio of app. IC50 values): >900 fold
IC50 (hFXIII-A2; recombinant, thrombin activated, transamidation assay, read-out: App. IC50 hFXIII-A2): > 50 µM
Papp A→B at 200 μM [1]: < 1 ×10⁻⁶ cm/s
solubility ([2]; phosphate-buffered saline, aqueous buffer, PBS pH 7.4, read-out: Solubility at pH 7.4): 100 µM and 50 µg/mL
solubility ([2]; simulated gastric fluid, diluted HCl pH 1.1, read-out: Solubility at pH 1.1): 48900 µM and 25900 µg/mL
Cytotoxicity: Viability, Caco-2 cells (Caco-2 cells): not cytotoxic up to 1,000 μM; also recorded: no effect up to 1,000 μM no effect up to 1,000 μM no effect up to 1,000 μM no effect up to 1,000 μM
Safety and tolerability, phase 1 ([3]; more than 100 healthy individuals, up to 500 mg, EudraCT 2014-003044-13 and 2015-005283-42): safe and well-tolerated
Overall safety and tolerability, phase 1 and phase 2a ([3]; more than 100 healthy volunteers and 123 patients in verum groups): safe and well-tolerated
Effect on gluten-induced duodenal mucosal injury, phase 2a ([4]; 6-week treatment, 10, 50, 100 mg oral, 3 g daily gluten challenge): protect celiac patients from gluten-induced mucosal injury; also recorded: all dose levels attenuated gluten-induced duodenal mucosal injury; also recorded: protected celiac patients from mucosal damage
Tolerability in gluten challenge study ([4]; celiac patients, gluten challenge): well-tolerated
Reactivity towards excess glutathione: parent drug compound recovery ([5]; 60 μM compound): 98% parent drug compound recovery (after 48 h)
Glutathione-adduct formed [5]: 2%
